According to patent US8802597B2, “Herbicidal pyrimidines” (E I du Pont de Nemours and Company, priority 2003, dated 2014):

What was measured:
Format in all cases: in vivo
[1] = test system: johnsongrass (Sorghum halepense); test: Test C pre/postemergence; conditions: for Johnsongrass plant response rating: scale 0 to 100 (0 no effect, 100 complete control)
Description: (§1) Seeds or nutlets of plant species selected from bermudagrass (Cynodon dactylon), Surinam grass (Brachiaria decumbens), cocklebur (Xanthium strumarium), corn (Zea mays), crabgrass (Digitaria sanguinalis), woolly cupgrass (Eriochloa villosa), giant foxtail (Setaria faberii), goosegrass (Eleusine indica), johnsongrass (Sorghum halepense), kochia (Kochia scoparia), lambsquarters (Chenopodium album), morningglory (Ipomoea coccinea), eastern black nightshade (Solanum ptycanthum), yellow nutsedge (Cyperus esculentus), pigweed (Amaranthus retroflexus), common ragweed (Ambrosia elatior), soybean (Glycine max), common (oilseed) sunflower (Helianthus annuus), and velvetleaf (Abutilon theophrasti) were planted and treated preemergence with test chemicals formulated in a non-phytotoxic solvent mixture which included a surfactant.
(§2) At the same time, plants selected from these crop and weed species and also winter barley (Hordeum vulgare), blackgrass (Alopecurus myosuroides), canarygrass (Phalaris minor), chickweed (Stellaria media), downy brome (Bromus tectorum), green foxtail (Setaria viridis), Italian ryegrass (Lolium multiflorum), wheat (Triticum aestivum), wild oat (Avena fatua) and windgrass (Apera spica-venti) were treated with postemergence applications of some of the test chemicals formulated in the same manner. Plants ranged in height from 2 to 18 cm (1- to 4-leaf stage) for postemergence treatments. Plant species in the flooded paddy test consisted of rice (Oryza sativa), umbrella sedge (Cyperus difformis), duck salad (Heteranthera limosa) and barnyardgrass (Echinochloa crus-galli) grown to the 2-leaf stage for testing. Treated plants and controls were maintained in a greenhouse for 12 to 14 days, after which time all species were compared to controls and visually evaluated. Plant response ratings, summarized in Table C, are based on a scale of 0 to 100 where 0 is no effect and 100 is complete control. A dash (-) response means no test result.

soybean (Glycine max) = test: Test C pre/postemergence; conditions: for Soybean plant response rating: scale 0 to 100 (0 no effect, 100 complete control)
Description: as §1, §2

[2] = test system: lambsquarters (Chenopodium album); test: Test C pre/postemergence; conditions: for Lambsquarters plant response rating: scale 0 to 100 (0 no effect, 100 complete control); for Plant response rating, Lambsquarters: scale 0 to 100
Description: as §1, §2

[3] = test system: bermudagrass (Cynodon dactylon); test: Test C pre/postemergence; conditions: for Bermudagrass plant response rating: scale 0 to 100 (0 no effect, 100 complete control)
Description: as §1, §2

[4] = test system: chickweed (Stellaria media); test: Test C postemergence; conditions: for Chickweed plant response rating: scale 0 to 100 (0 no effect, 100 complete control); for Plant response rating, Chickweed: scale 0 to 100
Procedure, shortened: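 Seeds sown and sprayed preemergence with test compound in non-phytotoxic solvent containing surfactant; postemergence sprays, same formulation, went onto plants 2 to 18 cm tall (1- to 4-leaf stage). Plants held in greenhouse 12 to 14 days, then visually rated against untreated controls on a 0–100 scale (0 no effect, 100 complete control).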

[5] = Postemergence, 250 g ai/ha, scale 0 to 100
[6] = Postemergence, 500 g ai/ha, scale 0 to 100
[7] = Preemergence, 62 g ai/ha, scale 0 to 100, 0 no effect, 100 complete control
[8] = Preemergence, 125 g ai/ha, scale 0 to 100
[9] = Preemergence, 250 g ai/ha, scale 0 to 100
[10] = Preemergence, 500 g ai/ha, scale 0 to 100

Nc1nc(C2CC2)nc(C=NO)c1Br [Compound 27]
Johnsongrass plant response rating ([1]; Postemergence, 62 g ai/ha): 0 | Johnsongrass plant response rating ([1]; Postemergence, 125 g ai/ha): 0 | Plant response rating, Johnsongrass [1, 5]: 0 | Plant response rating, Johnsongrass [1, 6]: 0 | Plant response rating, Johnsongrass [1, 7]: 0 | Plant response rating, Johnsongrass [1, 8]: 20 | Plant response rating, Johnsongrass [1, 9]: 45 | Plant response rating, Johnsongrass [1, 10]: 65 | Soybean plant response rating (soybean (Glycine max); Postemergence, 62 g ai/ha): 30 | Soybean plant response rating (soybean (Glycine max); Postemergence, 125 g ai/ha): 45 | Plant response rating, Soybean (soybean (Glycine max); [5]): 85 | Plant response rating, Soybean (soybean (Glycine max); [6]): 95 | Plant response rating, Soybean (soybean (Glycine max); [7]): 0 | Plant response rating, Soybean (soybean (Glycine max); [8]): 0 | Plant response rating, Soybean (soybean (Glycine max); [9]): 20 | Plant response rating, Soybean (soybean (Glycine max); [10]): 75 | Lambsquarters plant response rating ([2]; Postemergence, 62 g ai/ha): 20 | Lambsquarters plant response rating ([2]; Postemergence, 125 g ai/ha): 20 | Plant response rating, Lambsquarters ([2]; Postemergence, 250 g ai/ha): 25 | Plant response rating, Lambsquarters ([2]; Postemergence, 500 g ai/ha): 50 | Plant response rating, Lambsquarters ([2]; Preemergence, 125 g ai/ha): 40 | Plant response rating, Lambsquarters ([2]; Preemergence, 250 g ai/ha): 90 | Plant response rating, Lambsquarters ([2]; Preemergence, 500 g ai/ha): 100 | Bermudagrass plant response rating ([3]; Postemergence, 62 g ai/ha): 0 | Bermudagrass plant response rating ([3]; Postemergence, 125 g ai/ha): 0 | Plant response rating, Bermudagrass [3, 5]: 0 | Plant response rating, Bermudagrass [3, 6]: 30 | Plant response rating, Bermudagrass [3, 7]: 0 | Plant response rating, Bermudagrass [3, 8]: 0 | Plant response rating, Bermudagrass [3, 9]: 0 | Plant response rating, Bermudagrass [3, 10]: 0 | Chickweed plant response rating ([4]; 62 g ai/ha): 0 | Chickweed plant response rating ([4]; 125 g ai/ha): 0 | Plant response rating, Chickweed ([4]; 250 g ai/ha): 0 | Plant response rating, Chickweed ([4]; 500 g ai/ha): 0
